In article PMC5996347, “2-Mercapto-Quinazolinones as Inhibitors of Type II NADH Dehydrogenase and Mycobacterium tuberculosis: Structure–Activity Relationships, Mechanism of Action and Absorption, Distribution, Metabolism, and Excretion Characterization” (ACS Infectious Diseases, 2018):
≈ marks a conversion by molar mass, not a printed value.

What was measured:
M. tuberculosis H37Rv [1] = experiment: microbe, parasite or virus in culture; type: cell-based; conditions: Mycobacterium tuberculosis, read-out: 7H9-ADC MIC
M. tuberculosis H37Rv [2] = experiment: H37Rv MIC in GAST medium; type: cell-based, Mycobacterium tuberculosis; conditions: Mycobacterium tuberculosis, H37RV; read-out: GAST MIC
physchem = type: physicochemical; conditions: for solubility kinetic: water, kinetic from dmso stock
Procedure: The aqueous solubility of the test compounds was measured using laser nephelometry. Compounds were subject to serial dilution from 10 to 0.5 mM in DMSO. An aliquot was then mixed with Milli-Q water to obtain an aqueous dilution plate with a final concentration range of 250–12 μM, with a final DMSO concentration of 2.5%. Triplicate aliquots were transferred to a flat bottomed polystyrene plate which was immediately read on the NEPHELOstar (BMG Lab Technologies). The amount of laser scatter caused by insoluble particulates (relative nephelometry units, RNU) was plotted against compound concentration using a segmental regression fit, with the point of inflection being quoted as the compounds aqueous solubility (μM).

[3] = type: in vitro ADME; conditions: female, CD1, mouse, 0.5 μM, pH 7.4
Procedure: Test compound (0.5 μM) was incubated with female CD1 mouse liver microsomes (Xenotech LLC; 0.5 mg/mL, 50 mM potassium phosphate buffer, pH 7.4), and the reaction started with addition of excess NADPH (8 mg/mL, 50 mM potassium phosphate buffer, pH 7.4). Immediately, at time zero, and then at 3, 6, 9, 15, and 30 min, an aliquot (50 μL) of the incubation mixture was removed and mixed with acetonitrile (100 μL) to stop the reaction. Internal standard was added to all samples; the samples were centrifuged to sediment precipitated protein, and the plates were then sealed prior to UPLC-MS/MS analysis using a Quattro Premier XE (Waters Corporation, USA). XLfit (IDBS, UK) was used to calculate the exponential decay and consequently the rate constant (k) from the ratio of peak area of test compound to internal standard at each time point. The rate of intrinsic clearance (Cli) of each test compound was then calculated using the following calculation. [drawing 1] where V (mL/mg protein) is the incubation volume/mg protein added and microsomal protein yield is taken as 52.5 mg protein/g liver. Verapamil (0.5 μM) was used as a positive control to confirm acceptable assay performance.

[4] = Calculated properties (StarDrop)
[5] = biological target: T1, recombinant MBP-MtNdh (MTb NDH-2) (Mycobacterium tuberculosis, UniProt P95160); experiment: Ndh activity assay (NADH oxidation at 340 nm); type: biochemical; conditions: NADH 250 μM, Q2 40 μM; mean ± SD, Figure 6 inset; read-out: IC50 against MBP-MtNdh
T1 construct: The ORF corresponding to Rv1854c was codon optimized for E. coli; made in house; host or cells: E. coli BL21 (DE3) pLysS
T1 sequence (P95160 whole entry): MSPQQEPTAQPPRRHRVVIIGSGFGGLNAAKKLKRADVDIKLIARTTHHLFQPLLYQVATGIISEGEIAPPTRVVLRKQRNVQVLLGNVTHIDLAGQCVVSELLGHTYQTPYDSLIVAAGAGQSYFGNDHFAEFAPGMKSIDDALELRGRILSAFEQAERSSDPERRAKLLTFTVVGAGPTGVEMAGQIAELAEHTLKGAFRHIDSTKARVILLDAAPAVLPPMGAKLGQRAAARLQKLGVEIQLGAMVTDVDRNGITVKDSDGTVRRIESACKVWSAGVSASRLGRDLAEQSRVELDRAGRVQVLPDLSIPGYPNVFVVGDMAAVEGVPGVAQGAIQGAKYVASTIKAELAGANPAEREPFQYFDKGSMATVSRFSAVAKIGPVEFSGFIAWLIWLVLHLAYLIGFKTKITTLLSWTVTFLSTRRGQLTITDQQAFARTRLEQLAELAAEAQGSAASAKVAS

| Structure (SMILES) | MIC (M. tuberculosis H37Rv [1]) | MIC (M. tuberculosis H37Rv [2]) | solubility kinetic (physchem) | Microsomal Cli, mouse [3] | PFI [4] | IC50 [5] | Kinetic solubility (physchem) |
| --- | --- | --- | --- | --- | --- | --- | --- |
| O=C(COc1nc2ccccc2c(=O)[nH]1)NC1CCCCC1 [Compound 18, N-Cyclohexyl-2-((4-oxo-3,4-dihydroquinazolin-2-yl)oxy)acetamide] | 50 µM (≈ 15.1 µg/mL) | 25 µM (≈ 7.53 µg/mL) |  |  |  |  |  |
| O=C(CNc1nc2ccccc2c(=O)[nH]1)NC1CCCCC1 [Compound 17, N-Cyclohexyl-2-((4-oxo-3,4-dihydroquinazolin-2-yl)amino)acetamide] | 50 µM (≈ 15 µg/mL) | 50 µM (≈ 15 µg/mL) | 250 µM (≈ 75.1 µg/mL) | 2.1 mL/min/g |  |  |  |
| O=C(CSc1nc2c(c(=O)[nH]1)CCC2)NC1CCCCC1 [Compound 24, N-Cyclohexyl-2-((4-oxo-4,5,6,7-tetrahydro-3H-cyclopenta[d]pyrimidin-2-yl)thio)acetamide] | 1.2 µM (≈ 0.369 µg/mL) | 1.6 µM (≈ 0.492 µg/mL) | 250 µM (≈ 76.9 µg/mL) | 1.2 mL/min/g |  |  |  |
| Cn1c(SCC(=O)NC2CCCCC2)nc2ccccc2c1=O [Compound 20, N-Cyclohexyl-2-((3-methyl-4-oxo-3,4-dihydroquinazolin-2-yl)thio)acetamide] | 50 µM (≈ 16.6 µg/mL) | 50 µM (≈ 16.6 µg/mL) |  | 11 mL/min/g |  |  |  |
| Cc1nc(SCC(=O)NC2CCCCC2)nc(O)c1C [Compound 25, N-Cyclohexyl-2-((4,5-dimethyl-6-oxo-1,6-dihydropyrimidin-2-yl)thio)acetamide] | 12.5 µM (≈ 3.69 µg/mL) | 6.3 µM (≈ 1.86 µg/mL) | 250 µM (≈ 73.9 µg/mL) | 1.1 mL/min/g |  |  |  |
| Cc1csc2nc(SCC(=O)NC3CCCCC3)[nH]c(=O)c12 [Compound 3] | > 50 µM | 43 µM (≈ 14.5 µg/mL) |  |  | 4.7 | 210 ± 25 nM |  |
| O=C(CSc1nc2ccccc2c(=O)[nH]1)NC1CCCC1 [Compound 5, N-Cyclopentyl-2-((4-oxo-3,4-dihydroquinazolin-2-yl)thio)acetamide] | 1.8 µM (≈ 0.546 µg/mL) | 1 µM (≈ 0.303 µg/mL) | 101 µM (≈ 30.6 µg/mL) | 2.5 mL/min/g |  |  |  |
| O=C(CSc1nc2cnccc2c(=O)[nH]1)NC1CCC(F)(F)CC1 [Compound 27, N-(4,4-Difluorocyclohexyl)-2-((4-oxo-3,4-dihydropyrido[3,4-d]pyrimidin-2-yl)thio)acetamide] | 2.5 µM (≈ 0.886 µg/mL) | 9.4 µM (≈ 3.33 µg/mL) | 250 µM (≈ 88.6 µg/mL) | 1.6 mL/min/g |  |  |  |
| CC(Sc1nc2ccccc2c(=O)[nH]1)C(=O)NC1CCCCC1 (stereo not shown) [Compound 15, N-Cyclohexyl-2-((4-oxo-3,4-dihydroquinazolin-2-yl)thio)propanamide] | 50 µM (≈ 16.6 µg/mL) | 50 µM (≈ 16.6 µg/mL) |  | 7.5 mL/min/g |  |  | 250 µM |
| O=C(CSc1nc2ccc(F)cc2c(=O)[nH]1)NC1CCC(F)(F)CC1 [Compound 26, N-(4,4-Difluorocyclohexyl)-2-((6-fluoro-4-oxo-3,4-dihydroquinazolin-2-yl)thio)acetamide] | 0.8 µM (≈ 0.297 µg/mL) | 0.6 µM (≈ 0.223 µg/mL) | 55 µM (≈ 20.4 µg/mL) | 2.2 mL/min/g |  |  |  |
| O=C(CSc1nc2ccccc2c(=O)[nH]1)NC1CCCCC1(F)F (stereo not shown) [Compound 8, N-(2,2-Difluorocyclohexyl)-2-((4-oxo-3,4-dihydroquinazolin-2-yl)thio)acetamide] | 12.5 µM (≈ 4.42 µg/mL) | 9.4 µM (≈ 3.32 µg/mL) | 219 µM (≈ 77.4 µg/mL) | 2.3 mL/min/g |  |  |  |
| CC(Sc1nc2ccccc2c(=O)[nH]1)C(=O)N(C)C1CCCCC1 (stereo not shown) [Compound 16, N-Cyclohexyl-N-methyl-2-((4-oxo-3,4-dihydroquinazolin-2-yl)thio)propanamide] | 50 µM (≈ 17.3 µg/mL) | 50 µM (≈ 17.3 µg/mL) | 250 µM (≈ 86.4 µg/mL) | 50 mL/min/g |  |  |  |
| O=C(CSc1nc2ccccc2c(=O)[nH]1)NCC1CCCCC1 [Compound 10, N-(Cyclohexylmethyl)-2-((4-oxo-3,4-dihydroquinazolin-2-yl)thio)acetamide] | 0.3 µM (≈ 0.0994 µg/mL) | 0.2 µM (≈ 0.0663 µg/mL) |  | 5.9 mL/min/g |  |  |  |
| O=C(CSc1nc2ccccc2c(=O)[nH]1)NC1CCCC(F)(F)C1 (stereo not shown) [Compound 9, N-(3,3-Difluorocyclohexyl)-2-((4-oxo-3,4-dihydroquinazolin-2-yl)thio)acetamide] | 4.7 µM (≈ 1.66 µg/mL) | 4.7 µM (≈ 1.66 µg/mL) | 187 µM (≈ 66.1 µg/mL) | 2.9 mL/min/g |  |  |  |
| O=C(CSc1nc2ccccc2c(=O)[nH]1)NC1CCCCCC1 [Compound 4, N-Cycloheptyl-2-((4-oxo-3,4-dihydroquinazolin-2-yl)thio)acetamide] | 0.6 µM (≈ 0.199 µg/mL) | 0.3 µM (≈ 0.0994 µg/mL) | 39 µM (≈ 12.9 µg/mL) | 6.4 mL/min/g |  |  |  |
| Nc1nc(SCC(=O)NC2CCCCC2)nc2ccccc12 [Compound 22, 2-((4-Aminoquinazolin-2-yl)thio)-N-cyclohexylacetamide] | 50 µM (≈ 15.8 µg/mL) | 50 µM (≈ 15.8 µg/mL) |  |  |  |  |  |
| O=C(CSc1nc2ccccc2c(=O)[nH]1)NC1CCC1 [Compound 6, N-Cyclobutyl-2-((4-oxo-3,4-dihydroquinazolin-2-yl)thio)acetamide] | 1.6 µM (≈ 0.463 µg/mL) | 1.6 µM (≈ 0.463 µg/mL) | 219 µM (≈ 63.4 µg/mL) | 1.8 mL/min/g |  |  |  |
| O=C(CSc1nc2c(c(=O)[nH]1)CCCC2)NC1CCCCC1 [Compound 23, N-Cyclohexyl-2-((4-oxo-3,4,5,6,7,8-hexahydroquinazolin-2-yl)thio)acetamide] | 1.6 µM (≈ 0.514 µg/mL) | 1.2 µM (≈ 0.386 µg/mL) | 250 µM (≈ 80.4 µg/mL) | 6.6 mL/min/g |  |  |  |
| CN(C(=O)CSc1nc2ccccc2c(=O)[nH]1)C1CCCCC1 [Compound 14, N-Cyclohexyl-N-methyl-2-((4-oxo-3,4-dihydroquinazolin-2-yl)thio)acetamide] | 50 µM (≈ 16.6 µg/mL) | 50 µM (≈ 16.6 µg/mL) |  | 13 mL/min/g |  |  | 250 µM |
| O=C(CCc1nc2ccccc2c(=O)[nH]1)NC1CCCCC1 [Compound 19, N-Cyclohexyl-3-(4-oxo-3,4-dihydroquinazolin-2-yl)propanamide] | 50 µM (≈ 15 µg/mL) | 50 µM (≈ 15 µg/mL) | 250 µM (≈ 74.8 µg/mL) | 1.6 mL/min/g |  |  |  |
| O=C(CSc1ncc2ccccc2n1)NC1CCCCC1 [Compound 21, N-Cyclohexyl-2-(quinazolin-2-ylthio)acetamide] | 50 µM (≈ 15.1 µg/mL) | 50 µM (≈ 15.1 µg/mL) |  |  |  |  |  |
